Experimental data as given in publication PMC6009956, “Design, synthesis and biological activity of N^4-phenylsubstituted-7H-pyrrolo[2,3-d]pyrimidin-4-amines as dual inhibitors of aurora kinase A and epidermal growth factor receptor kinase” (Journal of Enzyme Inhibition and Medicinal Chemistry, 2017).
Like-named read-outs stand apart in the source and are kept apart here.

Legend:
aurora A kinase (AURKA) = target: T1, aurora A kinase (AURKA) (Homo sapiens, UniProt O14965); assay: ADP-Glo kinase assay, Aurora A; format: biochemical
T1 construct: purchased BPS Bioscience (assay run externally by the vendor)
T1 sequence (O14965 1-403): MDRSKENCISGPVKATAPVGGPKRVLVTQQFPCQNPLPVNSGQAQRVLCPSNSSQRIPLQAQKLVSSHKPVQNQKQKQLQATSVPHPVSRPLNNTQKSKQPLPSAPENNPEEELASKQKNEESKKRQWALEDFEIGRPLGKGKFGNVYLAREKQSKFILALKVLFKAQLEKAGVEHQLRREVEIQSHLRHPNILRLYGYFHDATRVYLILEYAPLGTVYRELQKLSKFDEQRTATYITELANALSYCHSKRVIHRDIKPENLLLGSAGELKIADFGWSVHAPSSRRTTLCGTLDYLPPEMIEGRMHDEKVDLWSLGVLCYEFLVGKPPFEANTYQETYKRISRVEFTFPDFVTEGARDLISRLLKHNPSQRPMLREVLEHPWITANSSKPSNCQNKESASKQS

EGFR = EGFR (Homo sapiens, UniProt P00533); assay: ADP-Glo kinase assay, EGFR; format: biochemical; parameters: purchased BPS Bioscience (assay run externally by the vendor)
Chain of EGFR (P00533 25-1210): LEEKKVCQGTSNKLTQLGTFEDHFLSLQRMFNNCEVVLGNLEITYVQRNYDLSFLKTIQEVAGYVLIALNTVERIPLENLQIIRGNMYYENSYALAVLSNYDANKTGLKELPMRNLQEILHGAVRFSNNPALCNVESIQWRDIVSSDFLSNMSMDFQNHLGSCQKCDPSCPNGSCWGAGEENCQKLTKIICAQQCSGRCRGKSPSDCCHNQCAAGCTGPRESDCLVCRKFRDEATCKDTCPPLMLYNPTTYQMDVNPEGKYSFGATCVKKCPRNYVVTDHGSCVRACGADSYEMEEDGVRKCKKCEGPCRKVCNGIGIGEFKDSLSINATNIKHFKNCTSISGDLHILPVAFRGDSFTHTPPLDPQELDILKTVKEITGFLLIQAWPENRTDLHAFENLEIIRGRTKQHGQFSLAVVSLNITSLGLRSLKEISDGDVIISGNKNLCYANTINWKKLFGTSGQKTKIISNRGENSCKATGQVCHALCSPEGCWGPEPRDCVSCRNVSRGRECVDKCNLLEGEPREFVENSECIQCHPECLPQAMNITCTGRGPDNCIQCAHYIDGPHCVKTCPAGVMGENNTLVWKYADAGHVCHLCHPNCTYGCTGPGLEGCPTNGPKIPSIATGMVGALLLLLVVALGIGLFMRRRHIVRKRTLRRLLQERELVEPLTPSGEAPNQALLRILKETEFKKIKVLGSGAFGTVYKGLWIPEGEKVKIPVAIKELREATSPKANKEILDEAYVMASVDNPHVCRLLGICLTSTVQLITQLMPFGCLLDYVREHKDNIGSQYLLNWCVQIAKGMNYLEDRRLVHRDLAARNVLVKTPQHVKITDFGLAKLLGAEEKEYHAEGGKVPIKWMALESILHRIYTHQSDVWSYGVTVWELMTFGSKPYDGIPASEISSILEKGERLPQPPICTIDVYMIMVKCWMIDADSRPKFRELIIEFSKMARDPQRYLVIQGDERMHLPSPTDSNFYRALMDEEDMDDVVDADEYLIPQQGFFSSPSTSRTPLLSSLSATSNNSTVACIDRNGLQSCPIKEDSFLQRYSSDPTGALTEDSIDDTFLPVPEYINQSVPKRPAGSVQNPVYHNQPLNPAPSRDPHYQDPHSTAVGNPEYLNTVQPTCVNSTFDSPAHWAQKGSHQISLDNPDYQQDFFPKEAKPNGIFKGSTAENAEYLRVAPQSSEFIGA

- IC50 (aurora A kinase (AURKA); 10 µM ATP, triplicate, read-out: AURKA IC50 ± SD): 5.78 ± 0.43 µM
- IC50 (aurora A kinase (AURKA); 10 µM ATP/0.2 mg/ml Kemptide, read-out: Aurora A IC50 (dose-response curve, supplement)): 5.8 µM
- Aurora A % Activity Set1 (aurora A kinase (AURKA); Log[nM] 0): 94%
- Aurora A % Activity Set2 (aurora A kinase (AURKA); Log[nM] 0): 101%
- Aurora A % Activity Set3 (aurora A kinase (AURKA); Log[nM] 0): 96%
- Aurora A % Activity Set1 (aurora A kinase (AURKA); Log[nM] 1.0): 103%
- Aurora A % Activity Set2 (aurora A kinase (AURKA); Log[nM] 1.0): 101%
- Aurora A % Activity Set3 (aurora A kinase (AURKA); Log[nM] 1.0): 106%
- Aurora A % Activity Set1 (aurora A kinase (AURKA); Log[nM] 1.5): 107%
- Aurora A % Activity Set2 (aurora A kinase (AURKA); Log[nM] 1.5): 113%
- Aurora A % Activity Set3 (aurora A kinase (AURKA); Log[nM] 1.5): 119%
- Aurora A % Activity Set1 (aurora A kinase (AURKA); Log[nM] 2.0): 110%
- Aurora A % Activity Set2 (aurora A kinase (AURKA); Log[nM] 2.0): 108%
- Aurora A % Activity Set3 (aurora A kinase (AURKA); Log[nM] 2.0): 113%
- Aurora A % Activity Set1 (aurora A kinase (AURKA); Log[nM] 2.5): 108%
- Aurora A % Activity Set2 (aurora A kinase (AURKA); Log[nM] 2.5): 108%
- Aurora A % Activity Set3 (aurora A kinase (AURKA); Log[nM] 2.5): 112%
- Aurora A % Activity Set1 (aurora A kinase (AURKA); Log[nM] 3.0): 94%
- Aurora A % Activity Set2 (aurora A kinase (AURKA); Log[nM] 3.0): 100%
- Aurora A % Activity Set3 (aurora A kinase (AURKA); Log[nM] 3.0): 94%
- Aurora A % Activity Set1 (aurora A kinase (AURKA); Log[nM] 3.5): 73%
- Aurora A % Activity Set2 (aurora A kinase (AURKA); Log[nM] 3.5): 63%
- Aurora A % Activity Set3 (aurora A kinase (AURKA); Log[nM] 3.5): 72%
- Aurora A % Activity Set1 (aurora A kinase (AURKA); Log[nM] 4.0): 32%
- Aurora A % Activity Set2 (aurora A kinase (AURKA); Log[nM] 4.0): 26%
- Aurora A % Activity Set3 (aurora A kinase (AURKA); Log[nM] 4.0): 28%
- Aurora A % Activity Set1 (aurora A kinase (AURKA); Log[nM] 4.5): 13%
- Aurora A % Activity Set2 (aurora A kinase (AURKA); Log[nM] 4.5): 10%
- Aurora A % Activity Set3 (aurora A kinase (AURKA); Log[nM] 4.5): 11%
- Aurora A % Activity Set1 (aurora A kinase (AURKA); Log[nM] 5.0): 14%
- Aurora A % Activity Set2 (aurora A kinase (AURKA); Log[nM] 5.0): 11%
- Aurora A % Activity Set3 (aurora A kinase (AURKA); Log[nM] 5.0): 13%
- IC50 (EGFR; 10 µM ATP, triplicate, cell without unit, read-out: EGFR IC50 ± SD): 43.6 ± 7.77 nM
- IC50 (EGFR; 10 µM ATP/0.2 mg/ml Poly-Glu-Tyr, read-out: EGFR IC50 (dose-response curve, supplement)): 43.9 nM
- EGFR % Activity Set1 (EGFR; Log[nM] 0): 91%
- EGFR % Activity Set2 (EGFR; Log[nM] 0): 92%
- EGFR % Activity Set3 (EGFR; Log[nM] 0): 91%
- EGFR % Activity Set1 (EGFR; Log[nM] 1.0): 66%
- EGFR % Activity Set2 (EGFR; Log[nM] 1.0): 76%
- EGFR % Activity Set3 (EGFR; Log[nM] 1.0): 95%
- EGFR % Activity Set1 (EGFR; Log[nM] 1.5): 54%
- EGFR % Activity Set2 (EGFR; Log[nM] 1.5): 61%
- EGFR % Activity Set3 (EGFR; Log[nM] 1.5): 56%
- EGFR % Activity Set1 (EGFR; Log[nM] 2.0): 29%
- EGFR % Activity Set2 (EGFR; Log[nM] 2.0): 30%
- EGFR % Activity Set3 (EGFR; Log[nM] 2.0): 32%
- EGFR % Activity Set1 (EGFR; Log[nM] 2.5): 17%
- EGFR % Activity Set2 (EGFR; Log[nM] 2.5): 19%
- EGFR % Activity Set3 (EGFR; Log[nM] 2.5): 15%
- EGFR % Activity Set1 (EGFR; Log[nM] 3.0): 8%
- EGFR % Activity Set2 (EGFR; Log[nM] 3.0): 8%
- EGFR % Activity Set3 (EGFR; Log[nM] 3.0): 6%
- EGFR % Activity Set1 (EGFR; Log[nM] 3.5): 3%
- EGFR % Activity Set2 (EGFR; Log[nM] 3.5): 4%
- EGFR % Activity Set3 (EGFR; Log[nM] 3.5): 3%
- EGFR % Activity Set1 (EGFR; Log[nM] 4.0): 0%
- EGFR % Activity Set2 (EGFR; Log[nM] 4.0): 1%
- EGFR % Activity Set3 (EGFR; Log[nM] 4.0): 1%
- EGFR % Activity Set1 (EGFR; Log[nM] 4.5): 0%
- EGFR % Activity Set2 (EGFR; Log[nM] 4.5): 1%
- EGFR % Activity Set3 (EGFR; Log[nM] 4.5): 0%
- EGFR % Activity Set1 (EGFR; Log[nM] 5.0): 0%
- EGFR % Activity Set2 (EGFR; Log[nM] 5.0): 0%
- EGFR % Activity Set3 (EGFR; Log[nM] 5.0): 1%
SMILES: FC(F)(F)c1cccc(Nc2ncnc3[nH]ccc23)c1 [Compound 13, N^4-(3-trifluoromethylphenyl)-7H-pyrrolo[2,3-d]pyrimidin-4-amine]
